# Tests used:
# sham and CHF rats [1] = experiment: In vivo left ventricular PV loop analysis
# sham and CHF rats [2] = experiment: Basal sympathetic tone (RSNA, CSNA, urinary NE) and arterial baroreflex function
# [3] = test system: sham and CHF rats (coronary artery ligation); experiment: Hemodynamic, morphological and echocardiographic measurements in sham and CHF rats; format: in vivo, rat; details: for DAP: diastolic arterial pressure; for HR: heart rate; for HW/BW: heart weight/body weight; for LVEDP: left ventricle end-diastolic pressure; for MAP: mean arterial pressure; for SAP: systolic arterial pressure; for WLW/BW: wet lung weight/body weight
# Method: In order to desensitize cardiac sympathetic afferents in rats, resiniferatoxin (RTX, 1 mg; Sigma Aldrich) was dissolved in 2 ml of ethanol and mixed with 18 ml of Tween in isotonic saline. RTX (50 μg/ml) was applied twice on the entire left and right ventricles with a swab just prior to coronary ligation. The dose of RTX was determined by preliminary experiments in which we found nearly complete ablation of TRPV1-expressing cardiac nerve endings on the surface of the rat heart for more than 10 weeks. Rat surgery was performed 9-11 weeks post-MI. Rats were anesthetized with urethane (800 mg/kg ip) and α-chloralose (40 mg/kg ip). Renal sympathetic nerve activity (RSNA) and cardiac sympathetic nerve activity (CSNA) were recorded for evaluating basal renal and cardiac sympathetic tone.
# More specifically, we examined TRPV1 protein expression in cardiac nerve endings from vehicle and RTX-treated rats using immunofluorescence. Experiments were performed on male Sprague-Dawley rats weighing […]. In brief, terminal experiments were carried out 9-11 weeks after MI in rats treated with either RTX or vehicle. These experiments were approved by the Institutional Animal Care and Use Committee of the University of Nebraska Medical Center and carried out under the guidelines of the National Institutes of Health Guide for the Care and Use of Laboratory Animals. Heart failure was produced by coronary artery ligation as described in (Wang et al., J. Appl. Physiol. 2010; 108:1365-1375; and Wang et al. 2, Am. J. Physiol. Regul. Integr. Comp. Physiol. 2012; 320:R1260-R1270). Cardiac function in all experimental animals was measured 2 and 6 weeks after MI by echocardiography (VEVO 770, Visual Sonics, Inc.) as described in (Wang et al., J. Appl. Physiol. 2010; 108:1365-1375; Wang et al. 2, Am. J. Physiol. Regul. Integr. Comp. Physiol. 2012; 320:R1260-R1270; and Wang et al. 3, J. Physiol. 2010; 588:5033-5047).
# This example illustrates an effect of RTX on body weight, organ weight, and hemodynamics in sham and CHF rats.
# [4] = test system: myocardium of sham and CHF rats; experiment: Cardiac apoptosis: TUNEL staining and cleaved caspase 3; format: in vivo, rat
# From the text: This example illustrates the effects of RTX on cardiac fibrosis in sham and CHF rats. Considering that RTX-mediated reduction in LVEDP in CHF rats may be related to an improvement in cardiac compliance, we further evaluated cardiac fibrosis using picrosirus red staining and protein expression of two fibrotic markers (a smooth muscle actin and fibronectin) as well as their upstream activator, transforming growth factor (TGF) β receptor I in the non-infarcted LV and inter-ventricular septum (IVS) walls from sham and CHF rats treated with either vehicle or RTX. For histopathology, the rat heart was fixed in 10% phosphate buffered formalin, embedded in paraffin, and cut into 10 μm serial sections from apex to base. Picrosirius red staining was performed to detect myocardial fibrosis. Immunohistochemistry staining of cleaved caspase 3 (CC3) was also performed in paraffin sections from the same heart tissues which were used for picrosirius red staining experiments.
# This example illustrates effects of RTX on cardiac apoptosis in sham and CHF rats. Cardiac remodeling includes hypertrophy, fibrosis and apoptosis. Based on the beneficial effects of RTX on cardiac hypertrophy and cardiac fibrosis in CHF rats, we further investigated the effect of RTX on cardiac apoptosis in sham and CHF rats. TUNEL staining was performed. Terminal deoxynucleotidyl transferase dUTP-mediated nick-end labeling (TUNEL) staining and analysis was performed to evaluate the effect of RTX on cardiac apoptosis. Representative photomicrographs are depicted in FIG. 6A.
structure (smiles),measurement,setting,value
"C=C(C)[C@]12C[C@@H](C)[C@@]34O[C@](Cc5ccccc5)(O[C@@H]1[C@@H]3C=C(COC(=O)Cc1ccc(O)c(OC)c1)C[C@]1(O)C(=O)C(C)=C[C@@H]41)O2 [RTX, resiniferatoxin]","basal contractile function (dP/dtmax, PRSW and ESPVR)",sham and CHF rats [1]; CHF rats,did not have a significant effect
same,LV chamber size,sham and CHF rats [1]; CHF+RTX vs CHF+vehicle,reduction
same,Tau and LVEDP,sham and CHF rats [1]; CHF+RTX vs CHF+vehicle,reduced
same,dP/dtmin,sham and CHF rats [1]; CHF+RTX vs CHF+vehicle,increased
same,ventricular stiffness as shown by the EDPVR,sham and CHF rats [1]; CHF+RTX vs CHF+vehicle,reduced stiffness
same,contractile and relaxation parameters,sham and CHF rats [1]; sham rats,no effect
same,average slope and Gainmax of arterial baroreflex control of HR and RSNA,sham and CHF rats [2]; CHF rats,significantly increased
same,basal RSNA and CSNA,sham and CHF rats [2]; CHF rats,lowered
same,minimum HR and RSNA of arterial baroreflex control,sham and CHF rats [2]; CHF rats,decreased
same,urinary NE excretion,sham and CHF rats [2]; CHF+RTX vs vehicle treated rats,significantly reduced
same,"average slope, Gainmax, and minimum RSNA or HR of arterial baroreflex control",sham and CHF rats [2]; sham rats,no significant effects
same,difference in ejection fraction or fractional shortening,"[3]; 2 weeks and 6 weeks after MI, CHF+RTX vs CHF+vehicle",no significant difference
same,DAP,"[3]; CHF + RTX (n = 25), mean ± SE",90.8 ± 2.2 mmHg
same,Heart weight,"[3]; CHF + RTX (n = 25), epicardial RTX 50 μg/ml at coronary ligation, 9-11 weeks post-MI, mean ± SE",1650 ± 49 mg
same,HR,"[3]; CHF + RTX (n = 25), mean ± SE",348.3 ± 5.5 bpm
same,HW/BW,"[3]; CHF + RTX (n = 25), mean ± SE",3.8 ± 0.1 mg/g
same,LVEDP,"[3]; CHF + RTX (n = 25), mean ± SE",8.3 ± 0.7 mmHg
same,MAP,"[3]; CHF + RTX (n = 25), mean ± SE",101.3 ± 2.1 mmHg
same,Infarct size,"[3]; CHF + RTX (n = 25), mean ± SE",39.1 ± 1.2 %
same,dp/dtmax,"[3]; CHF + RTX (n = 25), mean ± SE",5446 ± 173
same,dp/dtmin,"[3]; CHF + RTX (n = 25), mean ± SE",−4643 ± 149
same,SAP,"[3]; CHF + RTX (n = 25), mean ± SE",120.8 ± 2.3 mmHg
same,WLW/BW,"[3]; CHF + RTX (n = 25), mean ± SE",5.1 ± 0.2 mg/g
same,MI-induced cardiac dilation (LV systolic and diastolic diameters and volumes),"[3]; CHF rats, echocardiography",significantly reduced
same,increased LVEDP observed in CHF+vehicle rats,[3]; CHF+RTX rats,largely prevented
same,decreased protein expression of in myocardium,"[3]; CHF+RTX rats, western blot",partially reversed
same,blunted dp/dtmin,[3]; CHF+RTX vs CHF+vehicle rats,significantly increased
same,difference in dp/dtmax at rest,[3]; CHF+RTX vs CHF+vehicle rats,no significant difference
same,dp/dtmax response to isoproterenol (ISO) stimulation,[3]; CHF+RTX vs CHF+vehicle rats,significantly greater
same,heart weight and lung weight-to-body weight ratios,[3]; CHF+RTX vs CHF+vehicle rats,significant decrease
same,difference in infarct size,[3]; CHF+vehicle vs CHF+RTX rats,no significant difference
same,ejection fraction decrease,[3]; RTX treated rats (summary),less
same,Infarct size,[3]; Sham + RTX (n = 20),0%
same,DAP,"[3]; Sham + RTX (n = 20), mean ± SE",92.8 ± 3.2 mmHg
same,Heart weight,"[3]; Sham + RTX (n = 20), epicardial RTX 50 μg/ml, 9-11 weeks, mean ± SE",1430 ± 30 mg
same,HR,"[3]; Sham + RTX (n = 20), mean ± SE",362.0 ± 6.8 bpm
same,HW/BW,"[3]; Sham + RTX (n = 20), mean ± SE",3.3 ± 0.1 mg/g
same,LVEDP,"[3]; Sham + RTX (n = 20), mean ± SE",4.8 ± 0.4 mmHg
same,MAP,"[3]; Sham + RTX (n = 20), mean ± SE",105.0 ± 3.1 mmHg
same,dp/dtmax,"[3]; Sham + RTX (n = 20), mean ± SE",8601 ± 224
same,dp/dtmin,"[3]; Sham + RTX (n = 20), mean ± SE",−8088 ± 196
same,SAP,"[3]; Sham + RTX (n = 20), mean ± SE",128.8 ± 2.8 mmHg
same,WLW/BW,"[3]; Sham + RTX (n = 20), mean ± SE",4.5 ± 0.1 mg/g
same,"differences in cardiac morphological, echocardiographic or hemodynamic parameters",[3]; sham+vehicle vs sham+RTX rats,no significant differences
same,TUNEL-positive cells,"[4]; LV infarct, LV peri-infarct, LV remote and IVS regions, CHF+RTX vs CHF+vehicle",markedly reduced
same,increased cleaved caspase 3-positive cardiomyocytes,"[4]; LV peri-infarct, LV remote and IVS regions, CHF rats, immunohistochemistry",largely prevented
same,elevated protein expression of cleaved caspase 3,"[4]; LV remote and IVS regions, CHF rats",prevented
same,difference in number of TUNEL-positive cells in the heart,[4]; sham+vehicle vs sham+RTX rats,no significant difference

# — patent US10729643B2, “Methods for administration and methods for treating cardiovascular diseases with resiniferatoxin” (priority 2013, dated 2020)
